# Data published in patent US20040082558A1, “Administration of estradiol metabolites for inhibition of drug-induced nephrotoxicity” (priority 2002, published 2004).
# Marks after values point to notes of the source that are not given here.
# Legend:
# Type in all cases: in vivo, rat
# PAN-nephropathic rats [1] = experiment: Metabolic cage measurements (24-hour urine, intake, plasma) in PAN-nephropathic rats
# Procedure: A total of thirty-five, male Sprague Dawley rats (approximately 290 grams) were used. Rats were housed in the University of Pittsburgh Medical Center animal care facility (temperature, 22° C.; light cycle, 12 hours; relative humidity, 55%). Animals were fed Pro Lab RMH 3000 rodent diet (PMI Nutrition Inc., St Louis, Mo.) and were given water ad libitum. Institutional guidelines for animal welfare were followed, and the University of Pittsburgh Institutional Animal Care and Use Committee approved experimental protocols.
# Before initiating treatment, and 3, and 6 and 11 weeks into the treatments, animals were placed in metabolic cages and allowed to acclimatize for two days before conducting the 24-hour measurements of urine volume, food and water intake and urinary sodium, potassium, creatinine, and protein excretion. Tail vein blood samples were also taken for measurement of plasma sodium, potassium, albumin and creatinine. Plasma and urine samples were analyzed for sodium and potassium concentrations using a flame photometer (Model IL-943; Instrumentations Laboratory Inc., Lexington, Ma.) and for creatinine concentrations using a creatinine analyzer (Creatinine Analyzer 2, Beckman Instrument, Inc., Fullerton Calif., USA). Total urine proteins were measured by a spectrophotometric assay using bicinchoninic acid reagent (Pierce; Rockford, Ill.) and a modification of Lowry method. Lowry, O. H., et al., J. Biol. Chem. 193: 265 (1951), the disclosure of which is incorporated herein by reference.
# (§1) After baseline metabolic parameters were measured, animals were randomly assigned to receive subcutaneous saline (3 ml/kg; Control group, n=9) or puromycin aminonucleoside (PAN) (75 mg/kg; drug-induced nephrotoxic animals, n=26). PAN is a drug widely used to produce drug-induced nephrotoxicity in laboratory animals. Grond, J., et al., Contributions to Nephrology 60:83 (1988), the disclosure of which is incorporated herein by reference. Injections of PAN (20 mg/kg) were repeated after 2, 4, 8 and 10 weeks of treatment. Three hours after the initial injections, control animals were implanted with osmotic minipumps (model 2ML4, Alza, Palo Alto, Calif.) containing vehicle (polyethylene glycol 400, 2.5 μl/hour), whereas PAN-treated animals were implanted with osmotic minipumps containing either vehicle (PAN group, n=13) or 2-hydroxyestradiol (10 μg/kg/hour, PAN+2OHE group, n=13). Assignment to the PAN and PAN+2OHE groups was random. Six animals in the PAN group and 2 animals in the PAN+2OHE group died during the treatment, and these animals were not used in the final data analysis.
# PAN-nephropathic rats [2] = experiment: Acute measurements of renal hemodynamics and excretory function at 12 weeks; details: 12 weeks of treatment
# Procedure: as §1
# At 12 weeks into treatment, animals were anesthetized with pentobarbital (45 mg/kg i.p.) and instrumented for measurements of renal hemodynamics and excretory function. Two polyethylene (PE)-50 catheters were inserted into left jugular vein for delivery of supplemental anesthetics and saline infusion (50 μl/min), respectively. Another PE-50 catheter was inserted into left carotid artery and connected to a blood-pressure analyzer (Micro-Med., Inc., Louisville, Ky.) for continuous measurement of blood pressure and heart rate. A PE-10 catheter was inserted into the left ureter to facilitate collection of urine, and a flow probe (Model 1RB; Transonic Systems, Inc., Ithaca, N.Y.) was placed on the left renal artery for determination of renal blood flow, which was used to calculate renal vascular resistance. Next, an infusion of ^14C-inulin (0.035 μCi/20 μl saline/min) was initiated and after 60 minutes, two 30-minute clearance periods were conducted. A mid-point blood sample (300 μl) was collected and plasma and urine ^14C-inulin radioactivity was measured. Renal clearance of ^14C-inulin was calculated as an estimate of glomerular filtration rate.
# PAN-nephropathic rats [3] = experiment: Plasma testosterone radioimmunoassay; details: 12 weeks of treatment, male rats
# Procedure: An aliquot of mid-point blood sample drawn during the first clearance period was used for testosterone measurements. Plasma testosterone levels were determined by radioimmunoassay using a commercial kit provided by ICN Biomedicals, Inc. (Costa Mesa, Calif.) according to the protocol of the manufacturer.
# [4] = tested on: proliferating cell nuclear antigen (PCNA); experiment: Glomerular immunohistochemical staining for PCNA, quantitative image analysis; details: 12 weeks of treatment, kidney sections
# Procedure: (§2) Animals were killed by an overdose of anesthetic and kidneys were removed and weighed. One kidney was fixed in 10% formalin buffer and the second kidney was quick-frozen in liquid nitrogen and stored at −70° C. Kidney tissue samples were sectioned and processed into paraffin blocks for light microscopy. For labeling of collagen IV, renal cortical segments (5 μm) were incubated overnight at 4° C. with rabbit anti-mouse collagen IV antibody (dilution 1/500 ) obtained from Chemicon International Inc. (Temecula, Calif.). A primary monoclonal mouse antibody ( 1/200 dilution; Dako Corporation, Carpenteria, Calif.) was used to label proliferating cell nuclear antigen (PCNA). […] Nonspecific staining was assessed by replacing the primary antibody with phosphate buffered saline. […] Immunochemical staining for collagen IV and PCNA quantitatively was done with a SAMBA 4000 image analyzer (Image Products International, Chantilly, Va.) using specialized computer software (Immuno-Analysis, version 4.1, Microsoft, Richmond, Wash.), a color video camera and a Compaq computer. […] Ten high power fields (×400) were assessed for staining density or positively marked cells for ED-1. […] Staining intensity of positive areas was also assessed (mean optical density) and a mean quick score was then calculated (mean optical density×labeling index).
# ED1 positive cells = experiment: Immunohistochemical staining for ED1 positive cells (macrophage infiltration) in glomeruli and interstitium; details: 12 weeks of treatment, kidney sections
# Procedure: as §2
# collagen IV = experiment: Glomerular immunohistochemical staining for collagen IV, quantitative image analysis; details: 12 weeks of treatment, kidney sections
# Procedure: as §2
# PAN-treated rats = experiment: Mortality during 12-week treatment of PAN-treated rats
# Procedure: as §1
smiles,measurement,setting,value
"C[C@]12CC[C@@H]3c4cc(O)c(O)cc4CC[C@H]3[C@@H]1CC[C@@H]2O [2-OHE, 2-hydroxyestradiol]",Body Weight,PAN-nephropathic rats [1]; 0 wks of treatment (baseline),291 ± 5 g
same,Creatinine Excretion,PAN-nephropathic rats [1]; 0 wks of treatment (baseline),13.0 ± 1.0 mg/day
same,FE - K+ (fractional excretion of potassium),PAN-nephropathic rats [1]; 0 wks of treatment (baseline),11.6 ± 1.4%
same,FE - Na+ (fractional excretion of sodium),PAN-nephropathic rats [1]; 0 wks of treatment (baseline),0.18 ± 0.03%
same,Fluid Intake,PAN-nephropathic rats [1]; 0 wks of treatment (baseline),5.37 ± 0.25 mL/h/kg
same,Food Intake,PAN-nephropathic rats [1]; 0 wks of treatment (baseline),76 ± 2 g/kg/day
same,Plasma Cholesterol,PAN-nephropathic rats [1]; 0 wks of treatment (baseline),51.2 ± 2.2 mg/dL
same,Potassium Excretion,PAN-nephropathic rats [1]; 0 wks of treatment (baseline),7.54 ± 0.52 mEq/day/kg
same,Sodium Excretion,PAN-nephropathic rats [1]; 0 wks of treatment (baseline),3.35 ± 0.18 mEq/day/kg
same,Urine Volume,PAN-nephropathic rats [1]; 0 wks of treatment (baseline),1.68 ± 0.167 mL/h/kg
same,Creatinine Excretion,PAN-nephropathic rats [1]; 3 wks of treatment,10.9 ± 0.7 mg/day
same,FE - K+ (fractional excretion of potassium),PAN-nephropathic rats [1]; 3 wks of treatment,32.1 ± 4.4 %
same,FE - Na+ (fractional excretion of sodium),PAN-nephropathic rats [1]; 3 wks of treatment,0.50 ± 0.10%
same,Fluid Intake,PAN-nephropathic rats [1]; 3 wks of treatment,7.04 ± 0.667 mL/h/kg
same,Food Intake,PAN-nephropathic rats [1]; 3 wks of treatment,75 ± 4 g/kg/day
same,Plasma Cholesterol,PAN-nephropathic rats [1]; 3 wks of treatment,315 ± 39.3 mg/dL
same,Potassium Excretion,PAN-nephropathic rats [1]; 3 wks of treatment,12.3 ± 0.61 mEq/day/kg
same,Sodium Excretion,PAN-nephropathic rats [1]; 3 wks of treatment,5.76 ± 0.57 mEq/day/kg
same,Urine Volume,PAN-nephropathic rats [1]; 3 wks of treatment,3.62 ± 0.292 mL/h/kg
same,Creatinine Excretion,PAN-nephropathic rats [1]; 6 wks of treatment,9.8 ± 0.7 mg/day
same,FE - K+ (fractional excretion of potassium),PAN-nephropathic rats [1]; 6 wks of treatment,17.3 ± 2.5 %
same,FE - Na+ (fractional excretion of sodium),PAN-nephropathic rats [1]; 6 wks of treatment,0.34 ± 0.04%
same,Fluid Intake,PAN-nephropathic rats [1]; 6 wks of treatment,5.92 ± 0.5 mL/h/kg
same,Food Intake,PAN-nephropathic rats [1]; 6 wks of treatment,60 ± 5 g/kg/day
same,Plasma Cholesterol,PAN-nephropathic rats [1]; 6 wks of treatment,248.3 ± 19.3 mg/dL
same,Potassium Excretion,PAN-nephropathic rats [1]; 6 wks of treatment,9.17 ± 0.63 mEq/day/kg
same,Sodium Excretion,PAN-nephropathic rats [1]; 6 wks of treatment,4.21 ± 0.43 mEq/day/kg
same,Urine Volume,PAN-nephropathic rats [1]; 6 wks of treatment,2.99 ± 0.292 mL/h/kg
same,Creatinine Excretion,PAN-nephropathic rats [1]; 11 wks of treatment,12.8 ± 2.8 mg/day
same,FE - K+ (fractional excretion of potassium),PAN-nephropathic rats [1]; 11 wks of treatment,29.7 ± 1.7 %
same,FE - Na+ (fractional excretion of sodium),PAN-nephropathic rats [1]; 11 wks of treatment,0.37 ± 0.04%
same,Fluid Intake,PAN-nephropathic rats [1]; 11 wks of treatment,6.12 ± 0.583 mL/h/kg
same,Food Intake,PAN-nephropathic rats [1]; 11 wks of treatment,58 ± 6 g/kg/day
same,Plasma Cholesterol,PAN-nephropathic rats [1]; 11 wks of treatment,340.6 ± 27.3 mg/dL
same,Potassium Excretion,PAN-nephropathic rats [1]; 11 wks of treatment,8.36 ± 1.25 mEq/day/kg
same,Sodium Excretion,PAN-nephropathic rats [1]; 11 wks of treatment,3.12 ± 0.66 mEq/day/kg
same,Urine Volume,PAN-nephropathic rats [1]; 11 wks of treatment,3.44 ± 0.312 mL/h/kg
same,"Creatinine clearance (in words, FIGS. 1B and 1C)",PAN-nephropathic rats [1]; chronic treatment,attenuated the decline in creatinine clearance caused by PAN
same,"Plasma creatinine levels (in words, FIG. 1A)",PAN-nephropathic rats [1]; chronic treatment,attenuated PAN-induced increases in plasma creatinine levels
same,"UPE corrected for creatinine clearance (UPE/CrCl; in words, FIG. 2B)",PAN-nephropathic rats [1]; chronic treatment,this effect became even more significant
same,"Urinary protein excretion (UPE; in words, FIG. 2A)",PAN-nephropathic rats [1]; chronic treatment,reduced PAN-induced increases in urinary protein excretion
same,Blood pressure (in words),PAN-nephropathic rats [2],abolished PAN-induced changes in blood pressure
same,"GFR, inulin clearance (in words)",PAN-nephropathic rats [2],significantly attenuated PAN-induced changes in GFR
same,Hematocrit,PAN-nephropathic rats [2],30 ± 3%
same,Left Kidney,PAN-nephropathic rats [2],2.34 ± 0.09 g
same,Glomerular Filtration Rate,PAN-nephropathic rats [2]; 14C-inulin clearance,0.54 ± 0.06^b ml/min/g kidney
same,Body Weight,PAN-nephropathic rats [2]; acute experiment,353 ± 15
same,Mean Blood Pressure,PAN-nephropathic rats [2]; anesthetized,138.2 ± 4^b mm Hg
same,Renal Blood Flow,PAN-nephropathic rats [2]; anesthetized,2.80 ± 0.18 ml/min/g kidney
same,Renal Plasma Flow,PAN-nephropathic rats [2]; anesthetized,1.96 ± 0.12 ml/min/g kidney
same,Renal Vascular Resistance,PAN-nephropathic rats [2]; anesthetized,58.5 ± 4.5 mm Hg/ml/min/g kid
same,Urine Volume,PAN-nephropathic rats [2]; anesthetized,3.33 ± 0.26 μl/min/g kidney
same,Plasma testosterone levels,PAN-nephropathic rats [3],0.91 ± 0.22 ng/mL
same,"Labeling index of glomerular immunoreactive PCNA (in words, FIG. 3)",[4],significantly reduced the labeling index of glomerular immunoreactive PCNA
same,"Number of ED1 positive cells in glomeruli and interstitium (in words, FIG. 4)",ED1 positive cells,significantly (P<0.001) reduced the number of inflammatory cells in glomeruli and in the interstitium
same,"Glomerular collagen IV, labeling index (in words, FIGS. 5 and 6)",collagen IV,significantly reduced the labeling index of glomerular immunoreactive collagen IV
same,Reduction of PAN-induced mortality,PAN-treated rats; 2-hydroxyestradiol 10 μg/kg/hour by osmotic minipump,66%
same,Animals died during the treatment,PAN-treated rats; n=13 per group,2 animals
